We go through seven compounds from ChEMBL document CHEMBL1149952, “Inhibition of human leukocyte elastase (HLE) by novel bicyclic -lactams” (Bioorg Med Chem Lett, 1993).

Usually Ki stands for a dissociation constant, usually derived from enzyme kinetics or from competition with a known ligand. Higher therefore signals a looser hold on the target.

Some results are limits rather than exact numbers.

The target in test [1] is T1, Neutrophil elastase (Homo sapiens) (UniProt P08246).
T1 sequence (whole entry): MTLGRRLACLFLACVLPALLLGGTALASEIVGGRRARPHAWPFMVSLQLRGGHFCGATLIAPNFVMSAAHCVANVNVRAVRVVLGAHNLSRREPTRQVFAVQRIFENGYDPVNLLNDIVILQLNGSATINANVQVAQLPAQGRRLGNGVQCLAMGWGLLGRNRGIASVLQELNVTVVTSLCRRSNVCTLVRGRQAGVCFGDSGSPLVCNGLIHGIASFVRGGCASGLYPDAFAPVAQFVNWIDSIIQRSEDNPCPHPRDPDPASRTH
Description: Alkaline hydrolysis constant for the compound was determined against human leukocyte elastase (HLE)

The target of the next test is T2, Neutrophil elastase (Homo sapiens, UniProt P08246).
T2 sequence (P08246 whole entry): T1 sequence (whole entry)
The test can be described thus: Inhibitory activity against human leukocyte elastase (HLE) was determined.

For test [2], the target named is T1, Neutrophil elastase (Homo sapiens). The source holds these as a separate data set.
Description: Rate constant for the compound was determined against human leukocyte elastase (HLE)
For test [3] the target is unchanged. This is another data set of the same source.
Description: Rate constant for the compound was determined (k2/ki) against human leukocyte elastase (HLE)

Turning to `C[C@@H](O)[C@@H]1C(=O)N2S/C(=C/C(=O)OC(C)(C)C)S[C@@H]12`, in test [1], the kOH worked out at 10.3 M⁻¹ s⁻¹. For the same compound, on Neutrophil elastase, the inhibitory constant (Ki) is above 100 µM.
Take `C[C@@H](O)[C@H]1C(=O)N2S/C(=C/C(=O)OC(C)(C)C)S[C@H]12`: in test [1], the kOH was determined as 12 M⁻¹ s⁻¹. Besides, the Ki on Neutrophil elastase came to 1.5 µM. The k off in test [2] amounted to 0.0014 s⁻¹. For the same compound, in test [3], the k on was found to be 1000 M⁻¹ s⁻¹.
Regarding `C[C@@H](O)[C@H]1C(=O)N2S/C(=C/C(=O)OC(C)(C)C)C[C@H]12`, the Ki on Neutrophil elastase amounted to 3.2 µM.
The same measure, in the same setting: for `C[C@@H](O)[C@H]1C(=O)N2C/C(=C/C(=O)OC(C)(C)C)C[C@H]12` the value was above 100 µM.
Same read-out and setting: for `C[C@@H](O)[C@H]1C(=O)N2C/C(=C/C(=O)OC(C)(C)C)S[C@H]12` the value was 4 µM.
For `C[C@@H](O)[C@H]1C(=O)N2S/C(=C\C(=O)OC(C)(C)C)S[C@H]12`, in test [1], the kOH worked out at 3 M⁻¹ s⁻¹. Besides, the Ki on Neutrophil elastase was determined as 12 µM. For the same compound, the k off in test [2] was found to be 0.002 s⁻¹. This compound also displayed a k on in test [3] of 150 M⁻¹ s⁻¹.
The like results for `C[C@@H](OC(=O)Cc1ccccc1)[C@H]1C(=O)N2S/C(=C/C(=O)OC(C)(C)C)S[C@H]12` were, in that order, 0.04 M⁻¹ s⁻¹, 0.4 µM, 0.0004 s⁻¹ and 970 M⁻¹ s⁻¹.
